Molecular target: T1, c-Met kinase (recombinant c-Met) (Homo sapiens, UniProt P08581)
T1 construct: 0.27 nM recombinant c-Met
Assay: In vitro kinase assay I (homogeneous time-resolved fluorescence tyrosine kinase assay)
Assay type: biochemical
Procedure, shortened: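 Biotinylated peptide (0.5 μM) phosphorylated by 0.2 nM recombinant c-Met with 50 μM MgATP, 60 min at room temperature, pH 7.4, 5% DMSO. EDTA stop; HTRF read with Eu-anti-phosphotyrosine antibody and streptavidin-APC. IC50 from 4-parameter logistic fit.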

T1 sequence (P08581 25-1390): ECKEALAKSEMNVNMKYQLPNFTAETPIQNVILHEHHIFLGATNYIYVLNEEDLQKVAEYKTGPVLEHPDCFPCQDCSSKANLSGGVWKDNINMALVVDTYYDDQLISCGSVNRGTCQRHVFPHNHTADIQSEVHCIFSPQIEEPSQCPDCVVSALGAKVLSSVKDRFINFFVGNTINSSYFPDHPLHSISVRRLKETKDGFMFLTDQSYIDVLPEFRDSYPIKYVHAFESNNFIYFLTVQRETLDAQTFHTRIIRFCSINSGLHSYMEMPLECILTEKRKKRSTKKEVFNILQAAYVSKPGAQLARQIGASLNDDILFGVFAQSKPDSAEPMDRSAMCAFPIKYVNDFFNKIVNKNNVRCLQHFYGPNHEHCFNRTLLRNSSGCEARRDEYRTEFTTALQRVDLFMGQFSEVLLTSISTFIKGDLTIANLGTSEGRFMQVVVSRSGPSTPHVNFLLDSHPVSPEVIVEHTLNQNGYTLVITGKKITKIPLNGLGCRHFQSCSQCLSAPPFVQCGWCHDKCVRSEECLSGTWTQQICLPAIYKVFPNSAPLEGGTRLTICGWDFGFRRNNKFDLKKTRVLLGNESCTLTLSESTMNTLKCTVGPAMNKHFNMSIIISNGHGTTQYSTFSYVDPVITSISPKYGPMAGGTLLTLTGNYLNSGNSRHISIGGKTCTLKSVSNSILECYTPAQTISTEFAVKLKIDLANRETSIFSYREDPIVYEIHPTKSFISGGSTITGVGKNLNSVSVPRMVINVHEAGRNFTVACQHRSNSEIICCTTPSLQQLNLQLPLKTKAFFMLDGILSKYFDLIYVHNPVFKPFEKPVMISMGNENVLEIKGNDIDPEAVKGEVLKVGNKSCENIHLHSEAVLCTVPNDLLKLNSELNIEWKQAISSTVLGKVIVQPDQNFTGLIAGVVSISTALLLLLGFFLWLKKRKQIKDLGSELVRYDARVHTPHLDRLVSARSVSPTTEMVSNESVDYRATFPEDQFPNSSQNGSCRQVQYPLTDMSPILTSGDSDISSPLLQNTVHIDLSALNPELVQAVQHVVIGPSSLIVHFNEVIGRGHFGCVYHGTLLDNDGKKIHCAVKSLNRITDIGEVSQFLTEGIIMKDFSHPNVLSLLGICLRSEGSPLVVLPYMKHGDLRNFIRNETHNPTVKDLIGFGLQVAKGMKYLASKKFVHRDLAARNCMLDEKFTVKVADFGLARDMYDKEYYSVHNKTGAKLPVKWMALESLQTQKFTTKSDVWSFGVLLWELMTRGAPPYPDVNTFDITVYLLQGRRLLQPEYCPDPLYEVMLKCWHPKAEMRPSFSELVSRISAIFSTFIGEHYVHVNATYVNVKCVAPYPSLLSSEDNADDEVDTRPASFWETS

Row | IC50 | Structure (SMILES)
1 | < 100 nM | O=C(Nc1cccc(Cc2nn(-c3cc(F)cc(F)c3)ccc2=O)c1)OCCN1CCOCC1=O [Example 605, 2-(3-oxomorpholin-4-yl)ethyl (3-{[1-(3,5-difluorophenyl)-4-oxo-1,4-dihydropyridazin-3-yl]methyl}phenyl)carbamate]
2 | < 100 nM | CC1(COC(=O)Nc2cccc(Cc3nn(-c4cc(F)c(F)c(F)c4)ccc3=O)c2)COC1 [Example 560, (3-methyloxetan-3-yl)methyl (3-{[4-oxo-1-(3,4,5-trifluorophenyl)-1,4-dihydropyridazin-3-yl]methyl}phenyl)carbamate]
3 | < 100 nM | CC(c1cccc(-c2ncc(OC(C)C(C)(C)O)cn2)c1)c1nn(-c2cnn(C)c2)ccc1=O (single isomer, unassigned) [Example 383, 3-{(1R or S)-1-[3-(5-{[(1R or S)-2-hydroxy-1,2-dimethylpropyl]oxy}pyrimidin-2-yl)phenyl]ethyl}-1-(1-methyl-1H-pyrazol-4-yl)pyridazin-4(1H)-one]
4 | < 100 nM | CCOC(=O)Nc1cccc(Cc2nn(-c3ccc(F)c(F)c3)ccc2=O)c1 [Example 504, ethyl (3-{[1-(3,4-difluorophenyl)-4-oxo-1,4-dihydropyridazin-3-yl]methyl}phenyl)carbamate]
5 | < 100 nM | O=C(NCCN1CCOCC1)Nc1cccc(Cc2nn(-c3ccc(F)c(F)c3)ccc2=O)c1 [Example 496, 1-(3-{[1-(3,4-difluorophenyl)-4-oxo-1,4-dihydropyridazin-3-yl]methyl}phenyl)-3-(2-morpholin-4-ylethyl)urea]
6 | < 100 nM | COCCOC(=O)Nc1cccc(Cc2nn(-c3cn[nH]c3)ccc2=O)c1 [Example 196, 2-methoxyethyl (3-{[4-oxo-1-(1H-pyrazol-4-yl)-1,4-dihydropyridazin-3-yl]methyl}phenyl)carbamate]
7 | < 100 nM | CCCn1cnc(-c2cccc(Cc3nn(-c4cnn(C)c4)ccc3=O)c2)n1 [Example 57, 1-(1-methyl-1H-pyrazol-4-yl)-3-[3-(1-propyl-1H-1,2,4-traizol-3-yl)benzyl]pyridazin-4(1H)-one]
8 | < 100 nM | CCn1cc(-n2ccc(=O)c(Cc3cccc(-c4ncc(OC(C)C)cn4)c3)n2)cn1 [Example 305, 1-(1-ethyl-1H-pyrazol-4-yl)-3-[3-(5-isopropoxypyrimidin-2-yl)benzyl]pyridazin-4(1H)-one]
9 | < 100 nM | Cn1cc(-n2ccc(=O)c(Cc3cccc(NC(=O)OCC4CCCO4)c3)n2)cn1 (racemic) [Example 562, rac-tetrahydrofuran-2-ylmethyl (3-{[1-(1-methyl-1H-pyrazol-4-yl)-4-oxo-1,4-dihydropyridazin-3-yl]methyl}phenyl)carbamate]
10 | < 100 nM | Cn1cc(-n2ccc(=O)c(Cc3cccc(-c4ncc(OCC5CCCO5)cn4)c3)n2)cn1 (racemic) [Example 260, rac-1-(1-methyl-1H-pyrazol-4-yl)-3-{3-[5-(tetrahydrofuran-2-ylmethoxy)pyrimidin-2-yl]benzyl}pyridazin-4(1H)-one]
11 | 100 to 1000 nM | Cn1cc(-n2ccc(=O)c(Cc3ccc4[nH]ncc4c3)n2)cn1 [Example 184, 3-(1H-Indazol-5-ylmethyl)-1-(1-methyl-1H-pyrazol-4-yl)pyridazin-4(1H)-one]
12 | < 100 nM | Cn1cc(-n2ccc(=O)c(Cc3cccc(-c4ncc(CN5CCCC5)cn4)c3)n2)cn1 [Example 429, 1-(1-methyl-1H-pyrazol-4-yl)-3-{3-[5-(pyrrolidin-1-ylmethyl)pyrimidin-2-yl]benzyl}pyridazin-4(1H)-one]
13 | 100 to 1000 nM | CN(C)C(=O)CCn1cnc(-c2cccc(Cc3nn(-c4cnn(C)c4)ccc3=O)c2)n1 [Example 710, N,N-dimethyl-3-[3-(3-{[1-(1-methyl-1H-pyrazol-4-yl)-4-oxo-1,4-dihydropyridazin-3-yl]methyl}phenyl)-1H-1,2,4-triazol-1-yl]propanamide]
14 | 100 to 1000 nM | Cn1cnc(-c2cccc(Cc3nn(-c4ccccc4)ccc3=O)c2)n1 [Example 670, 3-[3-(1-Methyl-1H-1,2,4-triazol-3-yl)benzyl]-1-phenylpyridazin-4(1H)-one]
15 | < 100 nM | CC(c1cccc(-c2nccc(C(F)F)n2)c1)c1nn(-c2cnn(C)c2)ccc1=O (single isomer, unassigned) [Example 690, 3-[(1R or S)-1-{3-[4-(Difluoromethyl)pyrimidin-2-yl]phenyl}ethyl]-1-(1-methyl-1H-pyrazol-4-yl)pyridazin-4(1H)-one]
16 | 100 to 1000 nM | Cn1cc(-n2ccc(=O)c(Cc3cccc(-c4ncn(CCN5CCCC5=O)n4)c3)n2)cn1 [Example 718]
17 | < 100 nM | O=C(Nc1cccc(Cc2nn(-c3cc(F)cc(F)c3)ccc2=O)c1)OCCN1CCOCC1 [Example 523, 2-morpholin-4-ylethyl (3-{[1-(3,5-difluorophenyl)-4-oxo-1,4-dihydropyridazin-3-yl]methyl}phenyl)carbamate]
18 | < 100 nM | CC(c1cccc(-c2ncc(OC3CCNCC3)cn2)c1)c1nn(-c2cnn(C)c2)ccc1=O (racemic) [Example 334, rac-1-(1-Methyl-1H-pyrazol-4-yl)-3-(1-{3-[5-(piperidin-4-yloxy)pyrimidin-2-yl]phenyl}ethyl)pyridazin-4(1H)-one]

Row | IC50 | Structure (SMILES)
19 | < 100 nM | CC(C)COC(=O)Nc1cccc(Cc2nn(-c3cnn(CCCC(=O)NC4COC4)c3)ccc2=O)c1 [Example 701, 2-methylpropyl {3-[(1-{1-[4-(oxetan-3-ylamino)-4-oxobutyl]-1H-pyrazol-4-yl}-4-oxo-1,4-dihydropyridazin-3-yl)methyl]phenyl} carbamate]
20 | < 100 nM | CCOc1cnc(-c2cccc(Cc3nn(-c4cccc(C(N)=O)c4)ccc3=O)c2)nc1 [Example 736, 3-[3-[3-(5-ethoxypyrimidin-2-yl)benzyl]-4-oxopyridazin-1(4H)-yl]benzamide]
21 | 100 to 1000 nM | CCOC(=O)Nc1cccc(Cc2nn(-c3cccc(OC)c3)ccc2=O)c1 [Example 649, Ethyl(3-{[1-(3-methoxyphenyl)-4-oxo-1,4-dihydropyridazin-3-yl]methyl}phenyl)carbamate]
22 | 100 to 1000 nM | CCCc1nc(-c2cccc(Cc3nn(-c4cnn(C)c4)ccc3=O)c2)n[nH]1 [Example 185, 1-(1-Methyl-1H-pyrazol-4-yl)-3-[3-(5-propyl-1H-1,2,4-triazol-3-yl)benzyl]pyridazin-4(1H)-one]
23 | < 100 nM | COCCOCCOC(=O)Nc1cccc(Cc2nn(-c3ccc(F)c(F)c3)ccc2=O)c1 [Example 602, 2-(2-methoxyethoxy)ethyl (3-{[1-(3,4-difluorophenyl)-4-oxo-1,4-dihydropyridazin-3-yl]methyl}phenyl)carbamate]
24 | 1000 to 3000 nM | Cn1cc(-n2ccc(=O)c(Cc3cccc(NC(=O)OCC(=O)O)c3)n2)cn1 [Example 629, ({[(3-{[1-(1-Methyl-1H-pyrazol-4-yl)-4-oxo-1,4-dihydropyridazin-3-yl]methyl}phenyl)amino]carbonyl}oxy)acetic acid]
25 | < 100 nM | Cn1cc(-n2ccc(=O)c(Cc3cccc(NC(=O)OCC(N)C(F)(F)F)c3)n2)cn1 (racemic) [Example 619, rac-2-amino-3,3,3-trifluoropropyl (3-{[1-(1-methyl-1H-pyrazol-4-yl)-4-oxo-1,4-dihydropyridazin-3-yl]methyl}phenyl)carbamate]
26 | < 100 nM | CC(C)COC(=O)Nc1cccc(Cc2nn(-c3ccc(-c4cccnc4)cc3)ccc2=O)c1 [Example 727, 2-Methylpropyl[3-({4-oxo-1-[4-(pyridin-3-yl)phenyl]-1,4-dihydropyridazin-3-yl}methyl)phenyl]carbamate]
27 | < 100 nM | N#Cc1cccc(-n2ccc(=O)c(Cc3cccc(NC(=O)OCCN4CCCC4=O)c3)n2)c1 [Example 582, 2-(2-oxopyrrolidin-1-yl)ethyl (3-{[1-(3-cyanophenyl)-4-oxo-1,4-dihydropyridazin-3-yl]methyl}phenyl)carbamate]
28 | < 100 nM | COCCOC(=O)Nc1cccc(Cc2nn(-c3cc(Cl)cc(C#N)c3)ccc2=O)c1 [Example 127, 2-methoxyethyl (3-{[1-(3-chloro-5-cyanophenyl)-4-oxo-1,4-dihydropyridazin-3-yl]methyl}phenyl)carbamate]
29 | 100 to 1000 nM | O=c1ccn(-c2cccnc2)nc1Cc1cccc(-c2ncccn2)c1 [Example 29, 1-pyridin-3-yl-3-(3-pyrimidin-2-ylbenzyl)pyridazin-4(1H)-one]
30 | < 100 nM | CCNC(=O)Nc1cccc(Cc2nn(-c3cnn(C)c3)ccc2=O)c1 [Example 488, 1-ethyl-3-(3-{[1-(1-methyl-1H-pyrazol-4-yl)-4-oxo-1,4-dihydropyridazin-3-yl]methyl}phenyl)urea]
31 | 100 to 1000 nM | COCCNc1ccnc(-c2cccc(C(C)c3nn(-c4cnn(C)c4)ccc3=O)c2)n1 (single isomer, unassigned) [Example 695, 3-[(1R or S)-1-(3-{4-[(2-Methoxyethyl)amino]pyrimidin-2-yl}phenyl)ethyl]-1-(1-methyl-1H-pyrazol-4-yl)pyridazin-4(1H)-one]
32 | 100 to 1000 nM | CCOC(=O)Nc1cccc(Cc2nn(-c3cnn(CC4CCOCC4)c3)ccc2=O)c1 [Example 100, ethyl [3-({4-oxo-1-[1-(tetrahydro-2H-pyran-4-ylmethyl)-1H-pyrazol-4-yl]-1,4-dihydropyridazin-3-yl}methyl)phenyl]carbamate]
33 | < 100 nM | CCn1cc(-n2ccc(=O)c(Cc3cccc(-c4ncc(OCc5cc(C)no5)cn4)c3)n2)cn1 [Example 313, 1-(1-ethyl-1H-pyrazol-4-yl)-3-(3-{5-[(3-methylisoxazol-5-yl)methoxy]primidin-2-yl}benzyl)pyridazin-4(1H)-one]
34 | < 100 nM | CC(c1cccc(-c2ncc(N3CCOCC3)cn2)c1)c1nn(-c2cnn(C)c2)ccc1=O (single isomer, unassigned) [Example 243, 1,1-methyl-1H-pyrazol-4-yl)-3-{(1S or R)-1-[3-(5-morpholin-4-ylpyrimidin-2-yl)phenyl]ethyl}pyridazin-4(1H) one]
35 | 1000 to 3000 nM | Cn1cc(-n2ccc(=O)c(Cc3ccc4occc4c3)n2)cn1 [Example 51, 3-(1-benzofuran-5-ylmethyl)-1-(1-methyl-1H-pyrazol-4-yl)pyridazin-4(1H)-one]
